# Test results as given in patent US5030458A, “Method for preventing diet-induced carnitine deficiency in domesticated dogs and cats” (priority 1989, dated 1991).
# Values joined by “and” are separate entries in the source; they are usually repeats but may differ in a detail not shown here. Equal values may be shown once. “Also recorded” adds a separate entry of the source. Read-outs that look alike come from different tables or passages of the source.
# Key:
# [1] = Plasma carnitine concentrations in Greyhound dogs on commercial dog food supplemented with L-Carnitine (ground beef); format: in vivo; settings: for concentration at 168 h / concentration at 336 h: dog, plasma, po, 350 mg/animal/day
# Experimental: Six apparently healthy Greyhound dogs were determined to be normal by physical examination, fecal flotation, complete blood count, serum biochemical profile, ECG, and echocardiography. They were fed a standard commercial dog food diet free choice for a one-month control period. Control plasma samples (as well as subsequent test samples) were obtained following an eight-hour fast on two consecutive days for analysis of total, free, and esterified L-Carnitine concentration. The average of the plasma L-Carnitine concentration on two consecutive days was taken for each dog and each measuring period. Following the control period, all of the dogs were continued for two weeks on the standard commercial dog food diet supplemented with L-Carnitine. The L-Carnitine supplement was in the form of 0.5 kg per dog per day of raw frozen lean ground beef. This was equivalent to a daily supplement of 350 mg. of L-Carnitine per dog. Plasma samples were drawn on days 7 and 8 (averaged for the one-week measurement) and days 13 and 14 (averaged for the two-week measurement) for L-Carnitine analysis. Differences between the means of each test period and control were determined by the Student's t test.
# [2] = rats; cited from earlier work
# cardiomyopathy [3] = settings: restoration toward normal of deficient L-Carnitine levels; hamsters; cited from earlier work
# [4] = cited from earlier work
# [5] = mammalian species; cited from earlier work
# [6] = system: fatty acid oxidation in muscle homogenates; settings: certain L-Carnitine deficient patients; cited from earlier work
# [7] = human; approaching; cited from earlier work
# cardiomyopathy [8] = settings: restoration toward normal of deficient L-Carnitine levels; dogs; cited from earlier work
# [9] = Renal reabsorption of L-Carnitine in dogs; format: in vivo, dog
# [10] = cited from earlier work; remark: listed apart in the source
# [11] = Changes in serum L-Carnitine following oral administration of gamma-butyrobetaine; format: in vivo; settings: administering GBB to a dog
# Description: Changes in serum L-Carnitine following oral
# administration of 5 grams of gamma-butyro-betaine. Amounts
# [12] = system: carnitine deficiency syndromes; settings: humans; U.S. Pat. No. 4,382,092; cited from earlier work
structure (smiles),measurement,setting,value
C[N+](C)(C)C[C@H](O)CC(=O)[O-] [L-Carnitine],concentration,"[1]; Week 1, individual dogs 1-6, ground beef 0.5 kg/day/dog (350 mg L-Carnitine/day), 10080 min, read-out: Plasma carnitine concentration, Free",60.5 µM and 52.5 µM and 55.6 µM and 56 µM and 51.7 µM
same,concentration,"[1]; Week 1, individual dogs 1-6, ground beef 0.5 kg/day/dog (350 mg L-Carnitine/day), 10080 min, read-out: Plasma carnitine concentration, Total",70.7 µM and 57.2 µM and 63.1 µM and 58.1 µM and 56.3 µM
same,concentration,"[1]; Week 2, individual dogs 1-6, ground beef 0.5 kg/day/dog (350 mg L-Carnitine/day), 20160 min, read-out: Plasma carnitine concentration, Free",62.2 µM and 52.7 µM and 52 µM and 58.5 µM and 41 µM
same,concentration,"[1]; Week 2, individual dogs 1-6, ground beef 0.5 kg/day/dog (350 mg L-Carnitine/day), 20160 min, read-out: Plasma carnitine concentration, Total",65.7 µM and 58.1 µM and 56.3 µM and 66.3 µM and 43.2 µM
same,Plasma total L-Carnitine concentration (in words),[1]; diet supplemented with L-Carnitine,significantly increased; also recorded: stabilizes in a range that is considered normal; also recorded: dramatically increase the plasma concentration of L-Carnitine in dogs
same,concentration at 168 h,"[1]; Week 1, average of 6 dogs, S.D. ±3.5, ** p ≤ 0.01 vs control, read-out: Plasma carnitine concentration, Free, AVG",55.9 µM
same,concentration at 168 h,"[1]; Week 1, average of 6 dogs, S.D. ±6.5, * p ≤ 0.05 vs control, read-out: Plasma carnitine concentration, Total, AVG",62.5 µM
same,concentration at 168 h,"[1]; Week 1, individual dogs 1-6, ground beef 0.5 kg/day/dog (350 mg L-Carnitine/day), read-out: Plasma carnitine concentration, Free",58.9 µM
same,concentration at 168 h,"[1]; Week 1, individual dogs 1-6, ground beef 0.5 kg/day/dog (350 mg L-Carnitine/day), read-out: Plasma carnitine concentration, Total",70.1 µM
same,concentration at 336 h,"[1]; Week 2, average of 6 dogs, S.D. ±8.0, * p ≤ 0.05 vs control, read-out: Plasma carnitine concentration, Free, AVG",51.9 µM
same,concentration at 336 h,"[1]; Week 2, average of 6 dogs, S.D. ±8.6, read-out: Plasma carnitine concentration, Total, AVG",57 µM
same,concentration at 336 h,"[1]; Week 2, individual dogs 1-6, ground beef 0.5 kg/day/dog (350 mg L-Carnitine/day), read-out: Plasma carnitine concentration, Free",44.9 µM
same,concentration at 336 h,"[1]; Week 2, individual dogs 1-6, ground beef 0.5 kg/day/dog (350 mg L-Carnitine/day), read-out: Plasma carnitine concentration, Total",52.4 µM
same,"Plasma carnitine concentration, average",[2],56.5 ± 2.2 µM
same,Myocardial function,cardiomyopathy [3],improved myocardial function
same,Solubility in water,[4],extremely soluble in water
same,L-Carnitine concentration in cardiac and skeletal muscle relative to serum,[5],much higher than in serum
same,Fatty acid oxidation in muscle homogenates,[6],restoration to normal of fatty acid oxidation
same,Renal reabsorption,[7],~100%
same,Myocardial function,cardiomyopathy [8],improved myocardial function
same,"Renal reabsorption, average",[9],approximately 75%
same,"Plasma total carnitine, mean",[10]; human females,51.5 ± 11.6 µM
same,"Plasma total carnitine, mean",[10]; human males,59.3 ± 11.9 µM
"C[N+](C)(C)CCCC(=O)[O-] [gamma-butyro-betaine, gamma-butyrobetaine]",Effect on serum L-Carnitine (in words),[11],produces a concomitant use in serum L-Carnitine
same,Alleviation of carnitine deficiency syndromes,[12],used successfully to alleviate carnitine deficiency syndromes in humans
